Assay results reported in PubChem BioAssay (NCI).
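Each compound was tested at five concentrations against cells in 96-well plates for 48 hours. TGI marks complete inhibition of growth.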

Key:
Assay in all cases: inhibition of tumour cell growth, NCI panel, 48 h
KM12 colon = tested on: KM12 colon
MCF7 breast = tested on: MCF7 breast
SK-OV-3 ovarian = tested on: SK-OV-3 ovarian
MOLT-4 leukemia = tested on: MOLT-4 leukemia
EKVX NSCLC = tested on: EKVX NSCLC
SNB-19 CNS = tested on: SNB-19 CNS
PC-3 prostate = tested on: PC-3 prostate
SK-MEL-28 melanoma = tested on: SK-MEL-28 melanoma
SF-295 CNS = tested on: SF-295 CNS
UO-31 renal = tested on: UO-31 renal
T-47D breast = tested on: T-47D breast
HOP-62 NSCLC = tested on: HOP-62 NSCLC
IGROV1 ovarian = tested on: IGROV1 ovarian
DU-145 prostate = tested on: DU-145 prostate
MDA-MB-435 = tested on: MDA-MB-435
NCI-H226 lung = tested on: NCI-H226 lung
CCRF-CEM leukemia = tested on: CCRF-CEM leukemia
HS 578T breast = tested on: HS 578T breast
OVCAR-3 ovarian = tested on: OVCAR-3 ovarian
SNB-75 CNS = tested on: SNB-75 CNS
HOP-92 NSCLC = tested on: HOP-92 NSCLC
A498 renal = tested on: A498 renal
A549 NSCLC = tested on: A549 NSCLC
TK-10 renal = tested on: TK-10 renal
SW-620 colon = tested on: SW-620 colon
MDA-N = tested on: MDA-N
RPMI-8226 leukemia = tested on: RPMI-8226 leukemia
SR leukemia = tested on: SR leukemia
NCI-H23 lung = tested on: NCI-H23 lung
786-0 renal = tested on: 786-0 renal
HCT-116 colon = tested on: HCT-116 colon
UACC-62 melanoma = tested on: UACC-62 melanoma
NCI-H460 lung = tested on: NCI-H460 lung
OVCAR-5 ovarian = tested on: OVCAR-5 ovarian
K-562 leukemia = tested on: K-562 leukemia
MALME-3M melanoma = tested on: MALME-3M melanoma
CAKI-1 renal = tested on: CAKI-1 renal
SF-539 CNS = tested on: SF-539 CNS
SF-268 CNS = tested on: SF-268 CNS
NCI/ADR-RES ovarian = tested on: NCI/ADR-RES ovarian
ACHN renal = tested on: ACHN renal
LOX IMVI melanoma = tested on: LOX IMVI melanoma
OVCAR-8 ovarian = tested on: OVCAR-8 ovarian
OVCAR-4 ovarian = tested on: OVCAR-4 ovarian
SK-MEL-5 melanoma = tested on: SK-MEL-5 melanoma
HL-60(TB) leukemia = tested on: HL-60(TB) leukemia
UACC-257 melanoma = tested on: UACC-257 melanoma
RXF 393 renal = tested on: RXF 393 renal
M14 melanoma = tested on: M14 melanoma
MDA-MB-231 breast = tested on: MDA-MB-231 breast
SN12C renal = tested on: SN12C renal
COLO 205 colon = tested on: COLO 205 colon
HT29 colon = tested on: HT29 colon

Compound: Cc1nnc2n1-c1ccccc1-c1[nH]c3ccccc3c1C2
- TGI (KM12 colon): > 100 µM
- TGI (MCF7 breast): > 100 µM
- TGI (SK-OV-3 ovarian): > 100 µM
- TGI (MOLT-4 leukemia): > 100 µM
- TGI (EKVX NSCLC): > 100 µM
- TGI (SNB-19 CNS): > 100 µM
- TGI (PC-3 prostate): > 100 µM
- TGI (SK-MEL-28 melanoma): > 100 µM
- TGI (SF-295 CNS): > 100 µM
- TGI (UO-31 renal): > 100 µM
- TGI (T-47D breast): > 100 µM
- TGI (HOP-62 NSCLC): > 100 µM
- TGI (IGROV1 ovarian): > 100 µM
- TGI (DU-145 prostate): > 100 µM
- TGI (MDA-MB-435): > 100 µM
- TGI (NCI-H226 lung): > 100 µM
- TGI (CCRF-CEM leukemia): > 100 µM
- TGI (HS 578T breast): > 100 µM
- TGI (OVCAR-3 ovarian): > 100 µM
- TGI (SNB-75 CNS): 61.7 µM
- TGI (HOP-92 NSCLC): > 100 µM
- TGI (A498 renal): 78.2 µM
- TGI (A549 NSCLC): > 100 µM
- TGI (TK-10 renal): > 100 µM
- TGI (SW-620 colon): > 100 µM
- TGI (MDA-N): > 100 µM
- TGI (RPMI-8226 leukemia): > 100 µM
- TGI (SR leukemia): > 100 µM
- TGI (NCI-H23 lung): > 100 µM
- TGI (786-0 renal): > 100 µM
- TGI (HCT-116 colon): > 100 µM
- TGI (UACC-62 melanoma): > 100 µM
- TGI (NCI-H460 lung): > 100 µM
- TGI (OVCAR-5 ovarian): > 100 µM
- TGI (K-562 leukemia): > 100 µM
- TGI (MALME-3M melanoma): > 100 µM
- TGI (CAKI-1 renal): > 100 µM
- TGI (SF-539 CNS): > 100 µM
- TGI (SF-268 CNS): > 100 µM
- TGI (NCI/ADR-RES ovarian): > 100 µM
- TGI (ACHN renal): > 100 µM
- TGI (LOX IMVI melanoma): > 100 µM
- TGI (OVCAR-8 ovarian): > 100 µM
- TGI (OVCAR-4 ovarian): > 100 µM
- TGI (SK-MEL-5 melanoma): > 100 µM
- TGI (HL-60(TB) leukemia): 70.8 µM
- TGI (UACC-257 melanoma): > 100 µM
- TGI (RXF 393 renal): > 100 µM
- TGI (M14 melanoma): > 100 µM
- TGI (MDA-MB-231 breast): > 100 µM
- TGI (SN12C renal): > 100 µM
- TGI (COLO 205 colon): > 100 µM
- TGI (HT29 colon): > 100 µM
